Converted amounts (≈) assume the structure as drawn.
What was measured:
hERG (KCNH2) = hERG (KCNH2) (Homo sapiens, UniProt Q12809); experiment: Inhibition of hERG expressed in CHO cells at 3 uM at -80 mV holding potential assessed as current block incubated for 3 mins by Qpatch clamp method relative to control
[1] = biological target: T1, C-X-C chemokine receptor type 3 (Homo sapiens, UniProt P49682); experiment: Antagonist activity at human recombinant CXCR3 in human venous blood assessed as receptor internalization measured for 30 mins in presence of CXCL10 by flow cytometric analysis
T1 sequence (P49682 whole entry): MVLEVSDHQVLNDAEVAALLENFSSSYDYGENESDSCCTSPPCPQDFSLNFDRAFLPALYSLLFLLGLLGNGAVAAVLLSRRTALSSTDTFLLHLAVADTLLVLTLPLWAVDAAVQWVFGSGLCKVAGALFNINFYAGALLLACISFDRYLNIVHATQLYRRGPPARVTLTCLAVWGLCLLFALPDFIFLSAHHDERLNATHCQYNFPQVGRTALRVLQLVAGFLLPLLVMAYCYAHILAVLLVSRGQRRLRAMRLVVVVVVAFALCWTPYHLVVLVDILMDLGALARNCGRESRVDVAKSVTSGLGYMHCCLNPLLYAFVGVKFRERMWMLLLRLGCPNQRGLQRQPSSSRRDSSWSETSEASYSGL

[2] = biological target: T1, C-X-C chemokine receptor type 3; experiment: Antagonist activity at human recombinant CXCR3 expressed in CHO-K1 cells measured after 10 mins in presence of CXCL10 by FLIPR analysis
in vivo [3] = settings: Balb/c, mouse, po, 10 mg/kg
in vitro [4] = settings: mouse, microsomes
[5] = Lipophilicity, log D of the compound at pH 7.4; settings: buffer
in vivo [6] = settings: Balb/c, mouse, po, 10 mg/kg; remark: listed apart in the source
in vitro [7] = settings: human, microsomes
[8] = Unbound fraction in human plasma by equilibrium based LC-MS/MS analysis
[9] = Unbound fraction in mouse plasma by equilibrium based LC-MS/MS analysis
[10] = Solubility of the compound in FaSSIF; settings: simulated gi fluid
[11] = Solubility of the compound in FeSSIF; settings: simulated gi fluid
in vivo [12] = settings: Balb/c, mouse, po, 10 mg/kg; remark: listed apart in the source
[13] = Apparent permeability across apical to basolateral side in MDCK1 cells by LC-MS/MS analysis; settings: dog, MDCK

Chain of hERG (KCNH2) (Q12809 whole entry): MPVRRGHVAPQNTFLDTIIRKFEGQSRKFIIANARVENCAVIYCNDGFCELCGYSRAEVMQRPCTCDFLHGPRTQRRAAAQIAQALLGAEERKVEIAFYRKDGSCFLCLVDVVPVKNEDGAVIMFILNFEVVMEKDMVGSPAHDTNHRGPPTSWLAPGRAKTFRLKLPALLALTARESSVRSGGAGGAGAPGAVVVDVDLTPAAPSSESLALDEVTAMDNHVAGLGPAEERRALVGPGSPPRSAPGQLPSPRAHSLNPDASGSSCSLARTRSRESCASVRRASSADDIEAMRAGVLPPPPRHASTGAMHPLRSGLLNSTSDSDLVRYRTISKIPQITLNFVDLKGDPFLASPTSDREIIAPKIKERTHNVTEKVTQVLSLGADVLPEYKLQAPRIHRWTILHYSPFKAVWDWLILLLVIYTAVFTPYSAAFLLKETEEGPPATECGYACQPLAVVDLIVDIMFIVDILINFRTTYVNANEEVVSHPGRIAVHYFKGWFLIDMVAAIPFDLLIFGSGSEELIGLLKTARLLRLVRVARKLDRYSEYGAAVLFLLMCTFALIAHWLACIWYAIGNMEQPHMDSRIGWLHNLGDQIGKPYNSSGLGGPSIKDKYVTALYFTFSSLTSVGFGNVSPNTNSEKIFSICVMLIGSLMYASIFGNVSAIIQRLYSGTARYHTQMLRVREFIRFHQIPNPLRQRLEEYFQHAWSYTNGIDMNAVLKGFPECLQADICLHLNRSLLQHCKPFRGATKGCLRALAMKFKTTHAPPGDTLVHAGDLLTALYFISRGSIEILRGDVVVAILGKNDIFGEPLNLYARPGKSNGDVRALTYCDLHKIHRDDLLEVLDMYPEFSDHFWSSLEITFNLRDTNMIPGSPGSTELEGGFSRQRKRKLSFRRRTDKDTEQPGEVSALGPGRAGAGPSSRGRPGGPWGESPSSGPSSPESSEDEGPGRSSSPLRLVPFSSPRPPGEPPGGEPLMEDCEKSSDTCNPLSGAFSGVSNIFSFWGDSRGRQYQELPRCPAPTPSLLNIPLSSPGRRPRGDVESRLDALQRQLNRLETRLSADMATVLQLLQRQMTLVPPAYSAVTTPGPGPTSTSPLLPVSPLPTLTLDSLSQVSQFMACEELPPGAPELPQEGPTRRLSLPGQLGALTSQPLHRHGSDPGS

| Structure (SMILES) | IC50 [1] | IC50 [2] | inhibition at 0.05 h, 3 µM (hERG (KCNH2)) | other results |
| --- | --- | --- | --- | --- |
| Cc1nc(C)n(CC(=O)N2CCN(c3sc(C(F)(F)F)nc3-c3nc4ccc(S(C)(=O)=O)cc4[nH]3)C[C@H]2C)n1 |  |  | 8% |  |
| Cc1nc(C)n(CC(=O)N2CCN(c3sc(C(F)(F)F)nc3-c3nc4cc(N5CCOCC5)cc(F)c4[nH]3)C[C@H]2C)n1 |  |  | 6% |  |
| Cc1nc(C)n(CC(=O)N2CCN(c3sc(C(F)(F)F)nc3-c3nc4ccc(-n5cncn5)cc4[nH]3)C[C@H]2C)n1 | 1140 nM | 5.8 nM | 3% |  |
| Cc1nc(C)n(CC(=O)N2CCN(c3sc(C(F)(F)F)nc3-c3nc4cccc(C)c4[nH]3)C[C@H]2C)n1 |  |  | 52% |  |
| C[C@@H]1CN(c2sc(C(F)(F)F)nc2-c2nc3ccccc3[nH]2)CCN1C(=O)Cn1ccc(C(=O)O)n1 |  |  | -2% |  |
| Cc1nc(C)n(CC(=O)N2CCN(c3sc(C(F)(F)F)nc3-c3nc4c(C(F)(F)F)cccc4[nH]3)C[C@H]2C)n1 | 747 nM | 6 nM | 52% |  |
| C[C@@H]1CN(c2sc(C(F)(F)F)nc2-c2nc3ccc(N4CCN(C)CC4)cc3[nH]2)CCN1C(=O)Cn1cccn1 | 122 nM | 1.6 nM | 0% |  |
| Cc1nc(C)n(CC(=O)N2CCN(c3sc(C(F)(F)F)nc3-c3nc4ccc(C(C)(C)O)c(F)c4[nH]3)C[C@H]2C)n1 |  |  | 18% |  |
| C[C@@H]1CN(c2sc(C(F)(F)F)nc2-c2nc3ccccc3[nH]2)CCN1C(=O)Cn1c(=O)[nH]c2cccnc21 | 143 nM | 2.6 nM | 53% |  |

Continued, in another order:

| IC50 [1] | IC50 [2] | Structure (SMILES) | inhibition at 0.05 h, 3 µM (hERG (KCNH2)) | other results |
| --- | --- | --- | --- | --- |
| 805 nM | 6.1 nM | Cc1ccc(CC(=O)N2CCN(c3sc(C(F)(F)F)nc3-c3nc4ccccc4[nH]3)C[C@H]2C)cn1 | 73% |  |
| 330 nM | 2.7 nM | Cc1nn(CC(=O)N2CCN(c3sc(C(F)(F)F)nc3-c3nc4ccccc4[nH]3)C[C@H]2C)cc1CN(C)C | 38% | Tmax (in vivo [3]): 120 min; microsomal CLint at 0.25 h, 1 µM (in vitro [4]): 29 µL/min/mg; logD [5]: 2.4; Cmax (in vivo [6]): 258 ng/mL; microsomal CLint at 0.25 h, 1 µM (in vitro [7]): 37 µL/min/mg; fraction unbound [8]: 0.143; fraction unbound [9]: 0.053; solubility [10]: 649 µg/mL (≈ 1190 µM); solubility [11]: 645 µg/mL (≈ 1180 µM); AUC (in vivo [12]): 833 ng·h/mL |
| 580 nM | 3.8 nM | Cc1nc(C)n(CC(=O)N2CCN(c3sc(C(F)(F)F)nc3-c3nc4ccc(OC5CNC5)cc4[nH]3)C[C@H]2C)n1 | 0% |  |
| 321 nM | 3.1 nM | Cc1nc(C)n(CC(=O)N2CCN(c3sc(C(F)(F)F)nc3-c3nc4c(F)cccc4[nH]3)C[C@H]2C)n1 | 45% | Tmax (in vivo [3]): 15 min; microsomal CLint at 0.25 h, 1 µM (in vitro [4]): 25 µL/min/mg; logD [5]: 3.6; Cmax (in vivo [6]): 7010 ng/mL; microsomal CLint at 0.25 h, 1 µM (in vitro [7]): 24 µL/min/mg; fraction unbound [9]: 0.014; solubility [11]: 750 µg/mL (≈ 1440 µM); AUC (in vivo [12]): 41500 ng·h/mL; Papp A→B [13]: 8.5 ×10⁻⁶ cm/s |
| 1690 nM | 15 nM | C[C@@H]1CN(c2sc(C(F)(F)F)nc2-c2nc3ccccc3[nH]2)CCN1C(=O)Cn1cc(C2CCN(C)CC2)cn1 | 74% |  |
| 251 nM | 1.7 nM | C[C@@H]1CN(c2sc(C(F)(F)F)nc2-c2nc3ccccc3[nH]2)CCN1C(=O)Cn1cc(Cl)cn1 | 70% |  |
| 135 nM | 3.6 nM | C[C@@H]1CN(c2sc(C(F)(F)F)nc2-c2nc3ccccc3[nH]2)CCN1C(=O)Cn1cnc2c1CCN(C)C2 | 33% | logD [5]: 3; microsomal CLint at 0.25 h, 1 µM (in vitro [7]): 21 µL/min/mg; fraction unbound [8]: 0.15; solubility [10]: > 920 µg/mL; solubility [11]: > 920 µg/mL |
| 99.1 nM | 2.1 nM | C[C@@H]1CN(c2sc(C(F)(F)F)nc2-c2nc3cc(OCCO)ccc3[nH]2)CCN1C(=O)Cn1cnc2cccnc21 | 25% | Tmax (in vivo [3]): 15 min; microsomal CLint at 0.25 h, 1 µM (in vitro [4]): 31 µL/min/mg; logD [5]: 2.4; Cmax (in vivo [6]): 1760 ng/mL; microsomal CLint at 0.25 h, 1 µM (in vitro [7]): 43 µL/min/mg; fraction unbound [9]: 0.03; solubility [11]: 549 µg/mL (≈ 936 µM); AUC (in vivo [12]): 519 ng·h/mL |
